Assay results: ChEMBL document CHEMBL3046891, “Potent antimalarial activity of newly synthesized substituted chalcone analogs in vitro” (Med Chem Res, 2009)
In brackets after ≈: the same amount, converted by molar mass.

These compounds were tested on Plasmodium falciparum (assay: Antimalarial activity against blood-stage Plasmodium falciparum 3D7 after 48 hr by Giemsa staining method). Conditions: 3D7, 48 h.
Format: functional, organism-based

Structure (SMILES)	IC50
COc1cc(/C=C/C(=O)c2ccc(-n3ccnc3)cc2)cc(OC)c1OC	2.48 µg/mL (≈ 6.81 µM)
COc1ccc(/C=C/C(=O)c2ccc(N3CCOCC3)cc2)cc1	7.9 µg/mL (≈ 24.4 µM)
COc1cc(/C=C/C(=O)c2ccc(N3CCCC3)cc2)cc(OC)c1	8.43 µg/mL (≈ 25 µM)
COc1ccc(/C=C/C(=O)c2ccc(-n3cccc3)cc2)cc1	1.61 µg/mL (≈ 5.31 µM)
COc1cc(/C=C/C(=O)c2ccc(-n3cccc3)cc2)cc(OC)c1OC	2.03 µg/mL (≈ 5.59 µM)

Second part, the compound after the results:

IC50	Structure (SMILES)
13 µg/mL (≈ 35.4 µM)	COc1cc(/C=C/C(=O)c2ccc(N3CCCC3)cc2)cc(OC)c1OC
3.13 µg/mL (≈ 8.91 µM)	COc1ccc(/C=C/C(=O)c2ccc(N3CCCCC3)cc2)cc1OC
17 µg/mL (≈ 45 µM)	O=C(/C=C/c1cc2ccccc2nc1Cl)c1ccc(N2CCOCC2)cc1
6.3 µg/mL (≈ 20.5 µM)	COc1ccc(/C=C/C(=O)c2ccc(N3CCCC3)cc2)cc1
4.56 µg/mL (≈ 14.9 µM)	COc1ccc(/C=C/C(=O)c2ccc(-n3cncn3)cc2)cc1
9 µg/mL (≈ 23.5 µM)	COc1cc(/C=C/C(=O)c2ccc(N3CCNCC3)cc2)cc(OC)c1OC
